Measured values: publication PMC12664589 (Journal of Structural Biology: X, 2025)
pKi: −log10 of the molar value.

target: CpNce103p (Candida parapsilosis, UniProt G8B6R8); experiment: biochemical; type: biochemical; settings: not given

Compound | pKi
NCc1ccc(S(N)(=O)=O)cc1 [Compound 2, 4-(aminomethyl)benzenesulfonamide] | 2.50
O=[N+]([O-])c1ccccc1S(=O)(=O)Cl [Compound 3, 2-Nitrobenzenesulfonyl chloride] | 3.06
C#CCCS(N)(=O)=O [Compound 4, but-3-yne-1-sulfonamide] | 3.03
NS(=O)(=O)c1ccccc1 [Compound 5, Benzenesulfonamide] | 3.04
NN=C(c1ccccc1)c1ccccc1 [Compound 7, Benzophenone hydrazone] | 3.52
Nc1ccc(S(N)(=O)=O)cc1 [Compound 9, Sulfanilamide] | 3.08
[N-]=[N+]=NCC(=O)NCCc1ccc(S(N)(=O)=O)cc1 [Compound 10, 2-azido-N-(4-sulfamoylphenethyl)acetamide] | 2.82
NS(=O)(=O)c1ccc([N+](=O)[O-])cc1 [Compound 13, 4-Nitrobenzenesulfonamide] | 3.73
NS(=O)(=O)c1cc(C(=O)O)c(NCc2ccccc2)cc1Cl [Compound 14, 2-(benzylamino)-4-chloro-5-sulfamoylbenzoic acid] | 3.42
N[C@@H](Cc1c[nH]c2ccccc12)C(=O)O [Compound 15, L-Tryptophan] | 3.07
NS(=O)(=O)C(F)(F)F [Compound 16, Trifluoromethanesulfonamide] | 5.66

same assay, conditions: pH 7.5; read-out: Ki

Compound | pKi
NS(N)(=O)=O [Compound 8, Sulfamide] | 2.80
